Measured values: US8530406B2, “HMG-CoA reductase derived peptide and cosmetic or pharmaceutical composition containing same” (ISP Investments Inc., priority 2008, dated 2013)
No end group written: not given here.

Columns and labels:
Assay type in all cases: cell-based
[1] = test system: normal human keratinocytes; test: Ultrastructural study (transmission electron microscopy) of lamellar bodies in human keratinocytes; details: 0.5 ppm peptide
Protocol: The goal of this study is to study in an ultrastructural manner, in transmission electron microscopy, keratinocytes treated by peptide SEQ ID No. 5 at 0.5 ppm.
Normal human keratinocytes in culture are treated with a 1% stock solution at 50 ppm of peptide SEQ ID No. 5 for 48 hours (the medium in the presence of the active ingredient is changed every 24 hours). The cells are washed in PBS, and then are fixed by Karnosky hypertonic fixation (4% paraformaldehyde, 5% glutaraldehyde in a 0.08M phosphate buffer) 1 hour at ambient temperature and then 24 hours at 4° C. The cells are detached from the support by scraping and centrifuged 5 minutes at 1000 rpm. The supernatant is eliminated and a 1M sodium cacodylate buffer is deposited on the residue. The cells are mixed with 2% agar and then postfixed by osmium tetraoxide for 1 hour. The specimens are then dehydrated by successive passages in a series of alcohol (from 50 to 100%). The cells are then coated in a resin. The polymerization is carried out for approximately 12 hours at 60° C. Semi-thin sections of 0.5 μm are made with an ultramicrotome. The sections are deposited on a heat bonded slide and then colored with toluidine blue. The slides are then dehydrated again and mounted in a suitable medium. After having chosen the optimal study zone, the block is recut to the desired size and ultrathin sections are then made, only sections with a silver-grey color and a suitable size are mounted on the electron microscopy grid labeled with both uranyl acetate and lead citrate, and are examined by transmission electron microscope at 60 or 80 KV.

[2] = test system: normal human keratinocytes; test: Differentiation study of human keratinocytes (pankeratin immunofluorescence); details: 0.5 ppm peptide, 48 hours, epifluorescence
Protocol: The goal of this study is to determine the influence of peptide SEQ ID No. 5 on epidermal differentiation.
Normal human keratinocytes in culture are treated with a 1% stock solution at 50 ppm of peptide SEQ ID No. 4 for 48 hours (the medium in the presence of the active ingredient is changed every 24 hours). The cells are then washed and fixed with cold methanol for 4 minutes at 4° C.

HMG-CoA reductase [3] = test: Expression of HMG-CoA reductase in skin biopsies (immunolabelling); details: 0.5 ppm peptide applied topically, human skin samples in culture, 24 hours or 48 hours
Protocol: The goal of this study is to determine the influence of peptide SEQ ID No. 5 on the expression of HMG-CoA reductase.
Samples of human skin are placed in culture at the air/liquid interface. A 1% stock solution at 50 ppm of peptide SEQ ID No. 5 is applied topically and then the samples are incubated for 24 hours or 48 hours.
These skin samples are then fixed with formaldehyde and then enclosed in paraffin. Sections of 2 to 3 μm are then made Immunolabelling is carried out after unmasking the specific sites by microwave treatment and then incubation in trypsin Immunolabelling is carried out by using a polyclonal rabbit antibody specific for HMG-CoA reductase (Millipore, Upstate), and then a secondary antibody, coupled with a fluorescent dye. The skin sections are then examined by epifluorescence microscope (Nikon Eclipse E600 microscope).

[4] = test system: normal human dermal fibroblasts; test: Ultrastructural study of caveolae in human fibroblasts; details: 0.5 ppm peptide, 48 hours
Protocol: The goal of this study is to study at the ultrastructural level the caveolae in human dermal fibroblasts.
Normal human dermal fibroblasts in culture are treated with a 1% stock solution at 50 ppm of peptide SEQ ID No. 4 for 48 hours (the medium in the presence of the active ingredient is changed every 24 hours).

HMG-CoA reductase [5] = test: Expression of HMG-CoA reductase in normal human keratinocytes (immunofluorescence); details: 0.5 ppm peptide, 48 hours
Protocol: The goal of this study is to determine the influence of peptide SEQ ID No. 4 on the expression of HMG-CoA reductase in normal human keratinocytes.
Normal human dermal keratinocytes in culture are treated with a 1% stock solution at 50 ppm of peptide SEQ ID No. 4 for 48 hours (the medium in the presence of the active ingredient is changed every 24 hours). The cells are then washed and fixed in cold methanol for 4 minutes at 4° C. The cells are incubated in the presence of a polyclonal rabbit antibody specific for HMG-CoA reductase (Millipore, Upstate), and then a secondary antibody coupled with a fluorescent dye. The cells are then examined by epifluorescence microscope (Nikon Eclipse E600 microscope).

[6] = 48 hours, transmission electron microscopy

## Ala-Gly-Glu-Leu-Ser-NH2 (AGELS-NH2) [SEQ ID No. 5]
[1]; [6]
  Golgi complex development versus control cells: substantially more developed
  production of lamellar bodies (Odland bodies): excess production of lamellar bodies
[1]; inferred from ultrastructure
  lipid synthesis: increase in lipid synthesis
[2]
  expression of pankeratins: increases the expression of pankeratins
HMG-CoA reductase [3]
  HMG-CoA reductase fluorescence in the upper layers of the epidermis versus untreated control: stronger fluorescence

## Ala-Gly-Glu-Leu-Ser (AGELS) [SEQ ID No. 4]
[4]
  caveolae versus untreated control cells: significant increase in caveolae
HMG-CoA reductase [5]
  HMG-CoA reductase cytoplasmic fluorescence: more intense cytoplasmic fluorescence
